Measured values from patent US20240199628A1, “TETRAPYRROLE-BASED COMPOUNDS AND THEIR FOMULATIONS FOR ANTI-MICROBIAL THERAPY” (biolitec Unternehmensbeteiligungs II AG, priority 2021, published 2024).

Legend:
[1] = system: 25710_2.43-IMC (origin India, Clade C); test: A3R5 assay, virus inhibition, HIV-1 IMC 25710_2.43; format: cell-based; conditions: Human immunodeficiency virus 1, 96 h, read-out: inhibition compared to the virus control
Procedure: (§1) Antiviral testing was performed using temoporfin. The organisms studied were replication competent HIV-1 infectious molecular env clones (IMC) in the A3R5 assay. Following IMC were used: (I) 398-71-F6_20-IMC (origin Tansania, Clade A), (II) X2278_C2_B6-IMC (origin Spain, Clade D), (III) 25710_2.43-IMC (origin India, Clade C) and (IV) CNE55-IMC (origin China, Clade […]). Virus specific original env sequences were cloned into the HIV-1 NL4-3 backbone (gene bank ID: M19921) sequence containing a Renilla reniformis luciferase reporter gene to measure the infectivity rate.
(§2) A3R5 cells are grown in RPMI1640 supplemented with 10% fetal calf serum, 25 mM HEPES, 50 μg/ml gentamycine and 1 mg/ml geneticin. […] Within the assay the A3R5 cells were added (plus 5 μg/ml DEAE-Dextran) to the temoporfin samples in the presence of the respective amount of IMC at 50,000 RLU equivalents. After 96 hrs incubation the read out of the A3R5 assays occurred. The decrease of the luminescence compared to the virus control was measured using Victor X3 luminometer (Perkin Elmer) and allowed the detection of a possible inhibitory effect of temoporfin against HIV-1 IMCs.

[2] = system: replication competent HIV-1 infectious molecular env clones (IMC); test: A3R5 assay, all tested HIV-1 IMCs; format: cell-based; conditions: two independent runs, concentrations of 2.5 μM and 1.25 μM
Procedure: as §1, §2

[3] = system: 398-71-F6_20-IMC (origin Tansania, Clade A); test: A3R5 assay, virus inhibition, HIV-1 IMC 398-71-F6_20; format: cell-based; conditions: Human immunodeficiency virus 1, 96 h, read-out: anti-HIV-1 effect (inhibition)
Procedure: as §1, §2

[4] = system: CNE55-IMC (origin China, Clade CRF01_AR); test: A3R5 assay, virus inhibition, HIV-1 IMC CNE55; format: cell-based; conditions: Human immunodeficiency virus 1, 96 h, read-out: inhibition compared to the virus control
Procedure: as §1, §2

[5] = system: X2278_C2_B6-IMC (origin Spain, Clade D); test: A3R5 assay, virus inhibition, HIV-1 IMC X2278_C2_B6; format: cell-based; conditions: 96 h, read-out: anti-HIV-1 effect (inhibition)
Procedure: as §1, §2

Staphylococcus aureus = test: Antibacterial testing in submerged cultures (CFU/ml); format: cell-based; conditions: S. aureus
From the text: The organisms studied were Staphylococcus aureus DSM 1104 and DSM 11729, gram positive, Klebsiella pneumoniae, gram negative, Enterobacter aerogenes, gram negative, and Acinetobacter baumannii, gram negative. For antibacterial testing in submerged cultures cultured cells are suspended in sterile phosphate-buffered saline (PBS), sterile PBS supplemented with 10% sterile horse serum, or sterile PBS supplemented with 10% sheep blood. The bacterial suspensions are placed into sterile black well plates with clear bottoms. Concentrations of photosensitizer used in the study were as follows: 1 μM, 10 μM, 100 μM, and 1 mM. After an incubation time period of 30 minutes, the samples are exposed to white light, with a power density and irradiation time resulting in an energy fluency of about 100 J/cm^2. Control samples contained no photosensitizer and are not exposed to light. The control samples for dark toxicity are only exposed to photosensitizer without any illumination. After irradiation, the samples are removed and suspended again in the culture media. The numbers of colony-forming units (CFU/ml) are enumerated after an adequate incubation time period.

[6] = system: Staphylococcus aureus biofilms; test: Antibacterial testing of bacterial biofilms (CFU/ml); format: cell-based, Staphylococcus aureus DSM1104; conditions: S. aureus biofilms (FIG. 1F)
Procedure: For antibacterial testing of bacterial biofilms the 96 pins of a transferable solid phase plates (TSP; Nunc-Immuno™ TSP with MaxiSorp™ surface) were used to generate the biofilms. The TSP plates were transferred in 96-well plates with 200 μl fresh overnight culture of Staphylococcus aureus DSM1104 cells and incubated at 35° C. about 20 hours by gentle shaking. Within this time the bacterial cells established biofilms on the pins. After removing of unattached cells by gentle washing with 250 μl of 0.9% NaCl solution the TSP plates with the biofilms on the pins were incubated with 250 μl of the photosensitizer solution or the solvent of the photosensitizer solution for control samples for 30 minutes in the dark. After incubation and another washing the pins were irradiated by white light, with a power density and irradiation time resulting in an energy fluence of about 100 J/cm^2. For the quantification of remaining attached cells, the pins were transferred into 250 μl of 0.9% NaCl solution by gentle sonication. The samples are removed, suspended in the culture media, and the numbers of colony-forming units (CFU/ml) are enumerated after an adequate incubation time period.

Compound | inhibition at 2.5 µM [1] [%] | anti-HIV activity [2] | inhibition at 2.5 µM [3] [%] | inhibition at 2.5 µM [4] [%] | inhibition at 2.5 µM [5] [%] | antibacterial activity (Staphylococcus aureus; in the absence of light (FIG. 1A)) | antibacterial activity (Staphylococcus aureus; in the presence of complex media (serum) (FIG. 1A, middle)) | antibacterial activity (Staphylococcus aureus; in the presence of whole blood (FIG. 1A, right)) | antibacterial activity against biofilms [6]
Oc1cccc(-c2c3nc(c(-c4cccc(O)c4)c4ccc([nH]4)c(-c4cccc(O)c4)c4nc(c(-c5cccc(O)c5)c5ccc2[nH]5)CC4)C=C3)c1 [Temoporfin, 5,10,15,20-tetrakis(3-hydroxyphenyl)chlorin] | 42 | anti-HIV activity was observed | 35 | 22 | 38 | – | – | – | –
[5,10,15,20-tetrakis(3-hydroxyphenyl)porphyrinato]zinc(II) | – | – | – | – | – | high antibacterial activity | activity | activity | active
